This assay concerns the target T1, collagenase.
T1 construct: gene colG; commercial kit enzyme (EnzChek Gelatinase/Collagenase Assay Kit); native bacterial preparation, usually a mixture of collagenases
Briefly: fluorescence assay, fluorescein-conjugate gelatin cleavage. The class given is biochemical. Conditions: positive control; EnzChek kit. The text has this:
fluorescence assay, fluorescein-conjugate gelatin cleavage on collagenase

As for `O=C(O[C@@H]1Cc2c(O)cc(O)cc2O[C@@H]1c1cc(O)c(O)c(O)c1)c1cc(O)c(O)c(O)c1` [(−)-Epigallocatechin gallate], the Collagenase is 4.8 (4.1–5.5) µg/mL.

The values are drawn from publication PMC7402176, “Highlighting the Biological Potential of the Brown Seaweed Fucus spiralis for Skin Applications” (Antioxidants, 2020).
